Measurements from patent publication US20240101548A1, “HYDROXAMATE COMPOUND, PREPARATION METHOD THEREFOR AND APPLICATION THEREOF” (SHENZHEN CHIPSCREEN BIOSCIENCES CO., LTD., priority 2020, published 2024).
Where two headings read alike, the source gives them in different places.

What was measured:
Format in all cases: cell-based, human
[1] = system: IL-2-induced JAK1/JAK3 signal pathway; assay: IL-2-induced proliferation of KHYG-1 cells (JAK1/JAK3 signal); conditions: Homo sapiens; KHYG-1 cell proliferation, IL-2 10 ng/mL, 72 hours; read-out: Inhibition activity IC50 on IL-2-induced JAK1/JAK3 signal pathway
In short: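 Controls were wells lacking both compound and cytokine (0%) and compound-free IL-2 wells (100%). C50 was calculated from inhibition rates across doses.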

[2] = system: EPO-induced JAK2 signal pathway; assay: EPO-induced proliferation of UT-7 cells (JAK2 signal); conditions: Homo sapiens, UT7; UT-7 cell proliferation, EPO 10 ng/mL, 72 hours; read-out: Inhibition activity IC50 on EPO-induced JAK2 signal pathway
In short: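 […] was derived from inhibition rates across doses, scaled between wells lacking compound and cytokine (0) and EPO without compound (100), using alamarBlue fluorescence at Ex530/Em590. Compound (final 0-10000 nM) and 10 ng/mL EPO were given to UT-7 cells at 15000 per well for 72 h at 37° C.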

[3] = system: IL-10-induced JAK1/TYK2 signal pathway; assay: IL-10-induced JAK1/TYK2 signal pathway STAT3-Luc reporter gene assay in U2OS cells; conditions: Homo sapiens, U2OS cells, STAT3-Luc reporter, IL-10 10 ng/mL, read-out: Half inhibition dose (IC50) on IL-10-induced JAK1/TYK2 signal pathway
Excerpt: Cytokine IL-10 is one of the main members of IL-10 family. The receptor that cytokine IL-10 binds to consists of two kinds of subunits, i.e., IL-10R1 and IL-10R2, which respectively couple with JAK1 and TYK2. After the coupling of IL-10 with its receptor, interaction of phosphorylation occurs between JAK1 and TYK2 to form STAT3 docking site for phosphorylation of STAT3. The phosphorylated STAT3 enters the nucleus and drives the transcription and expression of downstream genes.
The reporter gene plasmid STAT3-Luc Reporter used in the present invention has luciferase expression sequence as the reporter gene, upstream of which is a promoter sequence containing multiple STAT3 binding sites. When phosphorylated STAT3 induced by IL-10 signal pathway binds to the promoter of STAT3-Luc Reporter plasmid, luciferase is transcribed and expressed. The excitation fluorescence catalyzed by Luciferase can be detected after the addition of […] substrate, whose intensity can quantitively reflect the activation level of the signal pathway.
Human osteosarcoma cell line U20S was commercially available from American Type Culture Collection (ATCC), and relevant culture conditions referred to those from ATCC. It was known that such cell line could express IL-10R2, JAK1, TYK2 and STAT3, therefore, by exogenous expression of IL-10R1 gene, a complete IL-10 signal pathway could be established. The human IL-10R1 subunit overexpression plasmid pCMV3-IL10RA-EGFP was constructed by Shanghai Genechem Co., Ltd., and capable of simultaneously expressing enhanced green fluorescent protein. In the subsequent detection and calculation, the signal of green fluorescent protein in the tested sample was used as a reference for transfection efficiency calibration of the luciferase reporter gene signal. Reporter plasmid STAT3-Luc Reporter was commercially available from Ji Man Biotech (Shanghai) Co., Ltd.
X-tremeGENE 9 DNA Transfection Reagent (Roche) was used for the transfection of plasmid DNA into cells, Cell Culture Lysis 5× reagent (Promega) and Luciferase Assay System (Promega) were used in cell lysate preparation and enzyme-substrate reaction for luciferase reporter gene detection. Green fluorescent protein signal and luciferase reporter gene signal were both detected by Tecan Spark™ 10M multimode microplate reader. The inhibition rate of the tested compound on the IL-10 signal pathway reporter gene signal and the half inhibition dose IC50 were both calculated using Microsoft Excel and GraphPad Prism 7.00 software.
U2OS cell line was inoculated in 96-well plate with flat bottom at 5000 cells per well, and cultured overnight at 37° C. and 5% CO2 followed by plasmid transfection. Following the instructions and using X-tremeGENE 9 DNA Transfection Reagent, pCMV3-IL10RA-EGFP and STAT3-Luc Reporter plasmids were co-transfected into the inoculated U2OS cells. After 24 hours of transfection, the tested compound was added respectively for a final concentration of 0, 0.1, 0.3, 1, 3, 10, 30, 100, or 300 nM. After 6 hours of culture at 37° C. and 5% CO2, IL-10 cytokine (Human IL-10 PEPROTECH 200-10-10UG) was added to each well for a final concentration of 10 ng/mL, the well in which neither compound nor cytokine was added was designated as 0% control well. The culture was continued for 24 hours before testing.
Cell lysate was prepared by using Cell Culture Lysis reagent and transferred to 96-well plate with half-well clear bottom. The green fluorescent protein signal value was detected at Ex485/Em520 using Tecan microplate reader, and recorded. After adding to each well the luciferase substrate from Luciferase Assay System, the signal value of luciferase-substrate reaction was immediately detected at 560 nm using Tecan microplate reader, and recorded.
Using Microsoft Excel software, the signal value of luciferase-substrate reaction of each well was calculated and calibrated based on the signal value of green fluorescent protein of each well. […]

## CCONC(=O)c1cnc(Nc2ccn(C)n2)cc1Nc1ccc(C2CC2)cc1N(C)S(C)(=O)=O [Example 160, 4-((4-cyclopropyl-2-(N-methylmethanesulfonamido)phenyl)amino)-N-ethoxy-6-((1-methyl-1H-pyrazol-3-yl)amino)nicotinamide]
[1]
  IC50: > 10 µM
[2]
  IC50: > 10 µM
[3]; U2OS
  IC50: 0.000442 µM

## C#Cc1ccc(Nc2cc(Nc3ccc(F)cn3)ncc2C(=O)NOCC)c(N(C)S(C)(=O)=O)c1 [Example 144, N-ethoxy-4-((4-ethynyl-2-(N-methylmethanesulfonamido)phenyl)amino)-6-(5-fluoropyridin-2-ylamino)nicotinamide]
[1]
  IC50: > 10 µM
[2]
  IC50: > 10 µM
[3]; U2OS
  IC50: 0.000969 µM

## CCONC(=O)c1cnc(Nc2ncc(C)s2)cc1Nc1ccc(C2CC2)cc1N(C)S(C)(=O)=O [Example 156, 4-((4-cyclopropyl-2-(N-methylmethanesulfonamido)phenyl)amino)-N-ethoxy-6-((5-methylthiazol-2-yl)amino)nicotinamide]
[1]
  IC50: > 10 µM
[2]
  IC50: > 10 µM
[3]; U2OS
  IC50: 0.001 µM

## CCONC(=O)c1cnc(Nc2cnccn2)cc1Nc1ccc(N2CCOCC2)cc1N(C)S(C)(=O)=O [Example 136, N-ethoxy-4-((2-(N-methylmethanesulfonamido)-4-morpholinophenyl)amino)-6-(pyrazin-2-ylamino)nicotinamide]
[1]
  IC50: > 10 µM
[2]
  IC50: > 10 µM
[3]; U2OS
  IC50: 0.00249 µM

## C#Cc1ccc(Nc2cc(Nc3cccc(F)n3)ncc2C(=O)NOC)c(N(C)S(C)(=O)=O)c1 [Example 19]
[1]
  IC50: > 10 µM
[2]
  IC50: > 10 µM
[3]; U2OS
  IC50: 0.00106 µM

## CCONC(=O)c1cnc(Nc2cccc(F)n2)cc1Nc1ccc(C2CC2)cc1N(C)S(C)(=O)=O [Example 22, 4-((4-cyclopropyl-2-(N-methylmethanesulfonamido)phenyl)amino)-N-ethoxy-6-((6-fluoropyridin-2-yl)amino)nicotinamide]
[1]
  IC50: > 10 µM
[2]
  IC50: > 10 µM
[3]; U2OS
  IC50: 0.00057 µM

## CCONC(=O)c1cnc(Nc2cc(C)nc(C)n2)cc1Nc1ccc(CC)cc1N(C)S(C)(=O)=O [Example 180]
[1]
  IC50: > 10 µM
[2]
  IC50: > 10 µM
[3]
  IC50: 0.00113 µM

## CCONC(=O)c1cnc(Nc2ccnc(C)n2)cc1Nc1cccc(-c2ncc(F)cn2)c1OC [Example 243, N-ethoxy-4-((3-(5-fluoropyrimidin-2-yl)-2-methoxyphenyl)amino)-6-((2-methylpyrimidin-4-yl)amino)nicotinamide]
[1]
  IC50: > 10 µM
[2]
  IC50: > 10 µM
[3]; U2OS
  IC50: 0.000507 µM

## CCONC(=O)c1cnc(Nc2ccc(F)cn2)cc1Nc1ccc(Cl)cc1N(C)S(C)(=O)=O [Example 128, 4-((4-chloro-2-(N-methylmethanesulfonamido)phenyl)amino)-N-ethoxy-6-((5-fluoropyridin-2-yl)amino)nicotinamide]
[1]
  IC50: > 10 µM
[2]
  IC50: > 10 µM
[3]; U2OS
  IC50: 0.000697 µM

## CONC(=O)c1cnc(Nc2cccc(F)n2)cc1Nc1ccc(C)cc1N(C)S(C)(=O)=O [Example 106, 6-((6-fluoropyridin-2-yl)amino)-N-methoxy-4-((4-methyl-2-(N-methylmethanesulfonamido)phenyl)amino)nicotinamide]
[1]
  IC50: > 10 µM
[2]
  IC50: > 10 µM
[3]; U2OS
  IC50: 0.00181 µM

## CONC(=O)c1cnc(Nc2cc(C)nc(C)n2)cc1Nc1ccc(C2CC2)cc1N(C)S(C)(=O)=O [Example 112]
[1]
  IC50: > 10 µM
[2]
  IC50: > 10 µM
[3]; U2OS
  IC50: 0.000711 µM

## CCONC(=O)c1cnc(Nc2ccnc(OC)n2)cc1Nc1cc(F)c(C2CC2)cc1N(C)S(C)(=O)=O [Example 188, 4-((4-cyclopropyl-5-fluoro-2-(N-methylmethanesulfonamido)phenyl)amino)-N-ethoxy-6-((2-methoxypyrimidin-4-yl)amino)nicotinamide]
[1]
  IC50: > 10 µM
[2]
  IC50: > 10 µM
[3]; U2OS
  IC50: 0.00127 µM

## CCONC(=O)c1cnc(Nc2ncc(F)cc2F)cc1Nc1cc(F)cc(-c2ncn(C3CC3)n2)c1OC [Example 244, 4-((3-(1-cyclopropyl-1H-1,2,4-triazol-3-yl)-5-fluoro-2-methoxyphenyl)amino)-6-((3,5-difluoropyridin-2-yl)amino)-N-ethoxy nicotinamide]
[1]
  IC50: > 10 µM
[2]
  IC50: > 10 µM
[3]; U2OS
  IC50: 0.00258 µM

## CONC(=O)c1cnc(Nc2ccc(C#N)cn2)cc1Nc1ccc(C2CC2)cc1N(C)S(C)(=O)=O [Example 111, 4-((4-cyclopropyl-2-(N-methylmethanesulfonamido)phenyl)amino)-6-((5-cyanopyridin-2-yl)amino)-N-methoxy nicotinamide]
[1]
  IC50: > 10 µM
[2]
  IC50: > 10 µM
[3]; U2OS
  IC50: 0.00109 µM

## C#Cc1ccc(Nc2cc(Nc3ccc(OC)cn3)ncc2C(=O)NOCC)c(N(C)S(C)(=O)=O)c1 [Example 141, N-ethoxy-4-((4-ethynyl-2-(N-methylmethanesulfonamido)phenyl)amino)-6-(5-methoxypyridin-2-ylamino)nicotinamide]
[1]
  IC50: > 10 µM
[2]
  IC50: > 10 µM
[3]; U2OS
  IC50: 0.000489 µM

## CCONC(=O)c1cnc(NC(=O)C2CC2)cc1Nc1cc(F)cc(-c2ncc(C)cn2)c1OC [Example 226, 6-(cyclopropylcarboxamido)-N-ethoxy-4-((5-fluoro-2-(methoxy)-3-(5-methylpyrimidin-2-yl)phenyl)amino)nicotinamide]
[1]
  IC50: > 10 µM
[2]
  IC50: > 10 µM
[3]; U2OS
  IC50: 0.000538 µM

## [2H]C([2H])([2H])ONC(=O)c1cnc(Nc2cccc(F)n2)cc1Nc1ccc(C2CC2)cc1N(C)S(C)(=O)=O [Example 68, 4-((4-cyclopropyl-2-(N-methylmethanesulfonamido)phenyl)amino)-6-((6-fluoropyridin-2-yl)amino)-N-(methoxy-d3)nicotinamide]
[1]
  IC50: > 10 µM
[2]
  IC50: > 10 µM
[3]; U2OS
  IC50: 0.00131 µM

## CCONC(=O)c1cnc(Nc2cc(C)nc(C)n2)cc1Nc1ccc(C)c(F)c1N(C)S(C)(=O)=O [Example 197]
[1]
  IC50: > 10 µM
[2]
  IC50: > 10 µM
[3]; U2OS
  IC50: 0.000731 µM

## CCONC(=O)c1cnc(Nc2ccnc(C)n2)cc1Nc1cccc(-c2ncc(C)cn2)c1OC [Example 240, N-ethoxy-4-((2-methoxy-3-(5-methylpyrimidin-2-yl)phenyl)amino)-6-((2-methylpyrimidin-4-yl)amino)nicotinamide]
[1]
  IC50: > 10 µM
[2]
  IC50: > 10 µM
[3]; U2OS
  IC50: 0.000258 µM

## CCONC(=O)c1cnc(Nc2ccncn2)cc1Nc1ccc(C2CC2)cc1N(C)S(=O)(=O)C1CC1 [Example 190, 4-((4-cyclopropyl-2-(N-methylcyclopropylsulfonamido)phenyl)amino)-N-ethoxy-6-(pyrimidin-4-ylamino)nicotinamide]
[1]
  IC50: > 10 µM
[2]
  IC50: > 10 µM
[3]; U2OS
  IC50: 0.00273 µM
